± gives the expanded uncertainty stated by the source.
Assay: xn = mol fraction of the nth substance listed
Conditions: for speed of sound: 100 kPa, Frequency=3 MHz, Sing-around technique in a fixed-path interferometer; for speed of sound / viscosity / mass density: Liquid; for viscosity / mass density: 102 kPa; for viscosity: Concentric cylinders viscometry; for mass density: Vibrating tube method; for surface tension liquid-gas: 294.5 K, Pendant drop shape

CCCCc1ccccc1 [butylbenzene] + CCCCCCCCCC
Conditions | mass density [kg/m3] | speed of sound [m/s] | viscosity [mPa·s]
293.15 K, x1 = 0.1055 | 740.9 ± 0.17 | 1259.2 ± 1 | 0.917 ± 0.007
293.15 K, x1 = 0.2096 | 752.3 ± 0.16 | 1266.3 ± 1 | 0.917 ± 0.007
293.15 K, x1 = 0.3124 | 764.12 ± 0.15 | 1273.8 ± 1 | 0.921 ± 0.007
293.15 K, x1 = 0.4141 | 776.38 ± 0.15 | 1282.1 ± 0.9 | 0.928 ± 0.007
293.15 K, x1 = 0.5145 | 789.08 ± 0.14 | 1291.3 ± 1.1 | 0.94 ± 0.007
293.15 K, x1 = 0.614 | 802.32 ± 0.13 | 1301.1 ± 0.9 | 0.957 ± 0.007
293.15 K, x1 = 0.712 | 816.03 ± 0.13 | 1312.2 ± 0.9 | 0.981 ± 0.007
293.15 K, x1 = 0.8094 | 830.38 ± 0.12 | 1324.5 ± 1.1 | 1 ± 0.01
293.15 K, x1 = 0.9051 | 845.04 ± 0.12 | 1338.2 ± 0.9 | 1.03 ± 0.01
293.15 K, x1 = 1 | 860.51 ± 0.11 | 1353.7 ± 0.9 | 1.05 ± 0.01
303.15 K, x1 = 0.1055 | 733.32 ± 0.17 | 1220.2 ± 1 | 0.792 ± 0.007
303.15 K, x1 = 0.2096 | 744.67 ± 0.16 | 1227.4 ± 1 | 0.794 ± 0.007
303.15 K, x1 = 0.3124 | 756.43 ± 0.16 | 1235 ± 0.9 | 0.798 ± 0.007
303.15 K, x1 = 0.4141 | 768.66 ± 0.15 | 1243.5 ± 0.9 | 0.805 ± 0.007
303.15 K, x1 = 0.5145 | 781.31 ± 0.14 | 1252.5 ± 0.9 | 0.816 ± 0.007
303.15 K, x1 = 0.614 | 794.51 ± 0.14 | 1262.6 ± 0.9 | 0.83 ± 0.007
303.15 K, x1 = 0.712 | 808.16 ± 0.13 | 1273.7 ± 0.9 | 0.849 ± 0.007
303.15 K, x1 = 0.8094 | 822.46 ± 0.12 | 1286 ± 1.1 | 0.866 ± 0.007
303.15 K, x1 = 0.9051 | 837.07 ± 0.12 | 1299.4 ± 0.9 | 0.891 ± 0.007
303.15 K, x1 = 1 | 852.49 ± 0.11 | 1314.9 ± 0.9 | 0.91 ± 0.007
313.15 K, x1 = 0.1055 | 725.64 ± 0.17 | 1181.5 ± 1 | 0.693 ± 0.006
313.15 K, x1 = 0.2096 | 736.97 ± 0.16 | 1188.9 ± 1 | 0.696 ± 0.006
313.15 K, x1 = 0.3124 | 748.7 ± 0.16 | 1196.6 ± 0.9 | 0.7 ± 0.006
313.15 K, x1 = 0.4141 | 760.89 ± 0.15 | 1205.2 ± 0.9 | 0.707 ± 0.006
313.15 K, x1 = 0.5145 | 773.5 ± 0.14 | 1214.3 ± 0.9 | 0.716 ± 0.006
313.15 K, x1 = 0.614 | 786.65 ± 0.14 | 1224.4 ± 0.9 | 0.727 ± 0.006
313.15 K, x1 = 0.712 | 800.26 ± 0.13 | 1235.6 ± 0.9 | 0.743 ± 0.006
313.15 K, x1 = 0.8094 | 814.51 ± 0.13 | 1247.9 ± 1 | 0.76 ± 0.006
313.15 K, x1 = 0.9051 | 829.07 ± 0.12 | 1261.2 ± 0.9 | 0.781 ± 0.006
313.15 K, x1 = 1 | 844.43 ± 0.11 | 1276.6 ± 0.9 | 0.801 ± 0.006
323.15 K, x1 = 0.1055 | 717.94 ± 0.17 | 1143.3 ± 1 | 0.616 ± 0.006
323.15 K, x1 = 0.2096 | 729.23 ± 0.17 | 1150.8 ± 1 | 0.619 ± 0.006
323.15 K, x1 = 0.3124 | 740.92 ± 0.16 | 1158.7 ± 0.9 | 0.624 ± 0.006
323.15 K, x1 = 0.4141 | 753.07 ± 0.15 | 1167.3 ± 0.9 | 0.63 ± 0.006
323.15 K, x1 = 0.5145 | 765.64 ± 0.15 | 1176.6 ± 0.9 | 0.639 ± 0.006
323.15 K, x1 = 0.614 | 778.75 ± 0.14 | 1186.7 ± 0.9 | 0.649 ± 0.006
323.15 K, x1 = 0.712 | 792.31 ± 0.13 | 1197.9 ± 0.9 | 0.661 ± 0.006
323.15 K, x1 = 0.8094 | 806.52 ± 0.13 | 1210.2 ± 1 | 0.677 ± 0.006
323.15 K, x1 = 0.9051 | 821.03 ± 0.12 | 1223.5 ± 0.8 | 0.695 ± 0.006
323.15 K, x1 = 1 | 836.34 ± 0.11 | 1238.7 ± 0.8 | 0.713 ± 0.006
333.15 K, x1 = 0.1055 | 710.17 ± 0.18 | 1105.6 ± 1 | 0.547 ± 0.006
333.15 K, x1 = 0.2096 | 721.43 ± 0.17 | 1113.2 ± 0.9 | 0.549 ± 0.006
333.15 K, x1 = 0.3124 | 733.08 ± 0.16 | 1121.2 ± 0.9 | 0.555 ± 0.006
333.15 K, x1 = 0.4141 | 745.19 ± 0.15 | 1129.9 ± 0.9 | 0.56 ± 0.006
333.15 K, x1 = 0.5145 | 757.73 ± 0.15 | 1139.3 ± 0.9 | 0.568 ± 0.006
333.15 K, x1 = 0.614 | 770.8 ± 0.14 | 1149.5 ± 0.9 | 0.577 ± 0.006
333.15 K, x1 = 0.712 | 784.32 ± 0.14 | 1160.7 ± 0.9 | 0.589 ± 0.006
333.15 K, x1 = 0.8094 | 798.48 ± 0.13 | 1173 ± 1 | 0.602 ± 0.006
333.15 K, x1 = 0.9051 | 812.95 ± 0.13 | 1186.3 ± 0.8 | 0.618 ± 0.006
333.15 K, x1 = 1 | 828.21 ± 0.12 | 1201.4 ± 0.8 | 0.636 ± 0.006
343.15 K, x1 = 0.1055 | 702.3 ± 0.3 | – | 0.488 ± 0.006
343.15 K, x1 = 0.2096 | 713.5 ± 0.3 | – | 0.492 ± 0.006
343.15 K, x1 = 0.3124 | 725.1 ± 0.3 | – | 0.496 ± 0.006
343.15 K, x1 = 0.4141 | 737.2 ± 0.3 | – | 0.502 ± 0.006
343.15 K, x1 = 0.5145 | 749.7 ± 0.2 | – | 0.509 ± 0.006
343.15 K, x1 = 0.614 | 762.7 ± 0.2 | – | 0.518 ± 0.006
343.15 K, x1 = 0.712 | 776.1 ± 0.2 | – | 0.528 ± 0.006
343.15 K, x1 = 0.8094 | 790.3 ± 0.2 | – | 0.54 ± 0.006
343.15 K, x1 = 0.9051 | 804.7 ± 0.2 | – | 0.554 ± 0.006
343.15 K, x1 = 1 | 819.9 ± 0.2 | – | 0.571 ± 0.006
353.15 K, x1 = 0.1055 | 694.4 ± 0.3 | – | 0.439 ± 0.005
353.15 K, x1 = 0.2096 | 705.6 ± 0.3 | – | 0.443 ± 0.005
353.15 K, x1 = 0.3124 | 717.1 ± 0.3 | – | 0.447 ± 0.005
353.15 K, x1 = 0.4141 | 729.2 ± 0.3 | – | 0.453 ± 0.005
353.15 K, x1 = 0.5145 | 741.7 ± 0.2 | – | 0.46 ± 0.005
353.15 K, x1 = 0.614 | 754.6 ± 0.2 | – | 0.467 ± 0.005
353.15 K, x1 = 0.712 | 768 ± 0.2 | – | 0.477 ± 0.005
353.15 K, x1 = 0.8094 | 782.1 ± 0.2 | – | 0.488 ± 0.005
353.15 K, x1 = 0.9051 | 796.5 ± 0.2 | – | 0.5 ± 0.005
353.15 K, x1 = 1 | 811.7 ± 0.2 | – | 0.516 ± 0.006
363.15 K, x1 = 0.1055 | 686.4 ± 0.3 | – | 0.399 ± 0.005
363.15 K, x1 = 0.2096 | 697.5 ± 0.3 | – | 0.402 ± 0.005
363.15 K, x1 = 0.3124 | 709.1 ± 0.3 | – | 0.407 ± 0.005
363.15 K, x1 = 0.4141 | 721.1 ± 0.3 | – | 0.412 ± 0.005
363.15 K, x1 = 0.5145 | 733.5 ± 0.2 | – | 0.419 ± 0.005
363.15 K, x1 = 0.614 | 746.4 ± 0.2 | – | 0.426 ± 0.005
363.15 K, x1 = 0.712 | 759.9 ± 0.2 | – | 0.434 ± 0.005
363.15 K, x1 = 0.8094 | 773.9 ± 0.2 | – | 0.444 ± 0.005
363.15 K, x1 = 0.9051 | 788.3 ± 0.2 | – | 0.456 ± 0.005
363.15 K, x1 = 1 | 803.4 ± 0.2 | – | 0.469 ± 0.005
373.15 K, x1 = 0.1055 | 678.2 ± 0.3 | – | 0.365 ± 0.005
373.15 K, x1 = 0.2096 | 689.3 ± 0.3 | – | 0.369 ± 0.005
373.15 K, x1 = 0.3124 | 700.9 ± 0.3 | – | 0.373 ± 0.005
373.15 K, x1 = 0.4141 | 712.8 ± 0.3 | – | 0.378 ± 0.005
373.15 K, x1 = 0.5145 | 725.3 ± 0.3 | – | 0.384 ± 0.005
373.15 K, x1 = 0.614 | 738.2 ± 0.2 | – | 0.391 ± 0.005
373.15 K, x1 = 0.712 | 751.6 ± 0.2 | – | 0.399 ± 0.005
373.15 K, x1 = 0.8094 | 765.6 ± 0.2 | – | 0.408 ± 0.005
373.15 K, x1 = 0.9051 | 779.9 ± 0.2 | – | 0.419 ± 0.005
373.15 K, x1 = 1 | 795 ± 0.2 | – | 0.43 ± 0.005

Conditions | surface tension liquid-gas [mN/m]
x1 = 0.1055 | 23.9 ± 0.3
x1 = 0.2096 | 24.3 ± 0.4
x1 = 0.3124 | 24.6 ± 0.4
x1 = 0.4141 | 24.9 ± 0.4
x1 = 0.5145 | 25.4 ± 0.4
x1 = 0.614 | 25.8 ± 0.4
x1 = 0.712 | 26.5 ± 0.4
x1 = 0.8094 | 26.7 ± 0.4
x1 = 0.9051 | 27.9 ± 0.4
